Test results published in patent US20080096970A1, “Stable Nateglinide Form B Compositions” (priority 2004, published 2008).

Test: Polymorphic stability of nateglinide Form B after processing: absence of Form H by X-ray powder diffraction
Assay type: physicochemical
Settings: Cu Kα-1, after de-lumping and air jet milling, Form H detectable at about 2 percent by weight or more
Experimental: Stability of the nateglinide Form B after processing is determined by an absence of the polymorphic Form H of the compound. This is determined by generating X-ray powder diffraction patterns of samples and checking for the characteristic peaks that correspond to Form H. For the present application, the X-ray diffraction patterns of the figures were obtained with Cu Kα-1 radiation. Nateglinide Form H can be detected at concentrations at least about 2 percent by weight, and quantified at concentrations at least about 5 percent by weight.

presence of nateglinide Form H after particle size reduction (stability of Form B): not detected
SMILES: CC(C)[C@H]1CC[C@H](C(=O)NC(Cc2ccccc2)C(=O)O)CC1 (single isomer, unassigned; (-)) [nateglinide Form B, (−)-N-[(trans-4-isopropylcyclohexane)-carbonyl]-D-phenylalanine]
